Results as given in ChEMBL document CHEMBL5550130, “Discovery of harmiprims, harmine-primaquine hybrids, as potent and selective anticancer and antimalarial compounds” (Bioorg Med Chem, 2024).
Active and inactive are the calls of the source. The rule behind the calls is not given here.

Columns and labels:
SW-620 = experiment: Antiproliferative activity against human SW620 cells assessed as reduction in cell viability incubated for 72 hrs by MTT assay; format: functional, cell-based; settings: SW-620, 72 h
HepG2 = experiment: Antiproliferative activity against human HepG2 cells assessed as reduction in cell viability incubated for 72 hrs by MTT assay; format: functional, cell-based; settings: HepG2, 72 h
HCT-116 = experiment: Antiproliferative activity against human HCT-116 cells assessed as reduction in cell viability incubated for 72 hrs by MTT assay; format: functional, cell-based; settings: HCT-116, 72 h
MCF7 [1] = experiment: Antiproliferative activity against human MCF7 cells assessed as reduction in cell viability incubated for 72 hrs by MTT assay; format: functional, cell-based; settings: MCF7, 72 h
[2] = Antiproliferative activity against human HEK293T cells assessed as reduction in cell viability incubated for 72 hrs by MTT assay; format: toxicity, cell-based, HEK-293T
Calf thymus DNA [3] = experiment: Binding affinity to calf thymus DNA assessed as binding constant by UV-Visible absorption spectroscopic analysis; settings: Bos taurus
Plasmodium falciparum [4] = experiment: Antiplasmodial activity against erythrocytic stage of chloroquine-sensitive Plasmodium falciparum 3D7 assessed as inhibition of parasite growth incubated for 3 days by HRP2-ELISA; format: functional, organism-based; settings: 3D7, 72 h
Plasmodium falciparum [5] = experiment: Antiplasmodial activity against erythrocytic stage of chloroquine-resistant Plasmodium falciparum Dd2 assessed as inhibition of parasite growth incubated for 3 days by HRP2-ELISA; format: functional, organism-based; settings: Dd2, 72 h
[6] = Selectivity index, ratio of IC50 for antiproliferative activity against human HEK293T cells to IC50 for antiplasmodial activity against erythrocytic stage of chloroquine-sensitive Plasmodium falciparum 3D7; format: toxicity, cell-based; settings: read-out: Ratio IC50
Calf thymus DNA [7] = experiment: Binding affinity to calf thymus DNA assessed as thermal stabilization by thermal denaturation based UV-Visible absorption spectroscopic analysis; settings: Bos taurus
Plasmodium falciparum [8] = experiment: Resistance index, ratio of IC50 for antiplasmodial activity against erythrocytic stage of chloroquine-resistant Plasmodium falciparum Dd2 to IC50 for antiplasmodial activity against erythrocytic stage of chloroquine-sensitive Plasmodium falciparum 3D7; format: functional
RNA [9] = experiment: Binding affinity to double stranded RNA (unknown origin) assessed as thermal stabilization by thermal denaturation based UV-Visible absorption spectroscopic analysis; format: nucleic-acid assay
dsDNA [10] = experiment: Binding affinity to double stranded DNA (unknown origin) by CD spectroscopic analysis; format: nucleic-acid assay
RNA [11] = experiment: Binding affinity to double stranded RNA (unknown origin) by CD spectroscopic analysis; format: nucleic-acid assay
[12] = Drug uptake in human MCF7 cells at 10 uM incubated for 1 hr by fluorescence microscopic analysis; format: ADME, cell-based; settings: mcf7, 1 h
Plasmodium berghei [13] = experiment: Antiplasmodial activity against hepatic stage of Plasmodium berghei sporozoites infected in human Huh-7 cells assessed as reduction in parasite growth at 1 uM incubated for 1 hr by bioluminescence assay; format: functional, organism-based
Plasmodium berghei [14] = experiment: Antiplasmodial activity against hepatic stage of Plasmodium berghei sporozoites infected in human Huh-7 cells assessed as reduction in parasite growth at 10 uM incubated for 1 hr by bioluminescence assay; format: functional, organism-based
Plasmodium berghei [15] = experiment: Antiplasmodial activity against hepatic stage of Plasmodium berghei sporozoites infected in human Huh-7 cells assessed as inhibition of parasite growth incubated for 1 hr by bioluminescence assay; format: functional, organism-based; settings: Huh-7, 1 h
Huh-7 [16] = experiment: Cytotoxicity against human Huh-7 cells infected with Plasmodium berghei sporozoites at 1 uM by alamar blue staining based assay; format: functional, cell-based
Huh-7 [17] = experiment: Cytotoxicity against human Huh-7 cells infected with Plasmodium berghei sporozoites at 10 uM by alamar blue staining based assay; format: functional, cell-based
Plasmodium falciparum [18] = experiment: Gametocytocidal activity against gametocytes of Plasmodium falciparum NF54 assessed as inhibition of ATP production measured after 48 hrs by Bac-TiterGlo analysis; format: functional, organism-based; settings: NF54, 48 h
dsDNA [19] = experiment: Binding affinity to double stranded DNA (unknown origin) assessed as increase in fluorescence intensity by fluorescence quenching analysis; format: nucleic-acid assay
RNA [20] = experiment: Binding affinity to double stranded RNA (unknown origin) assessed as increase in fluorescence intensity by fluorescence quenching analysis; format: nucleic-acid assay
[21] = Selectivity index, ratio of IC50 for antiproliferative activity against human HEK293T cells to IC50 for antiproliferative activity against human MCF7 cells; format: toxicity, cell-based; settings: HEK293T cells versus MCF7 cells, read-out: Ratio IC50
RNA [22] = experiment: Binding affinity to double stranded RNA (unknown origin) assessed as binding constant by UV-Visible absorption spectroscopic analysis; format: nucleic-acid assay
[23] = Drug uptake in human MCF7 cells at 1 uM incubated for 30 mins by Mitotracker Deep Red staining confocal microscopic analysis; format: ADME, cell-based; settings: mcf7, 0.5 h
MCF7 [24] = experiment: Induction of cell cycle arrest in human MCF7 cells assessed as increase in accumulation of cells at G1 phase at 0.75 uM measured after 24 hrs by propidium iodide/RNAse A staining based cell sorter analysis; format: functional
MCF7 [25] = experiment: Induction of cell cycle arrest in human MCF7 cells assessed as decrease in accumulation of cells at S phase at 0.75 uM measured after 24 hrs by propidium iodide/RNAse A staining based cell sorter analysis; format: functional
MCF7 [26] = experiment: Induction of cell cycle arrest in human MCF7 cells assessed as increase in accumulation of cells at G1 phase at 0.75 uM measured after 48 hrs by propidium iodide/RNAse A staining based cell sorter analysis; format: functional
MCF7 [27] = experiment: Induction of cell cycle arrest in human MCF7 cells assessed as increase in accumulation of cells at G2/M phase at 0.75 uM measured upto 48 hrs by propidium iodide/RNAse A staining based cell sorter analysis; format: functional

SMILES | IC50 (SW-620) [nM] | IC50 (HepG2) [nM] | IC50 (HCT-116) [nM] | IC50 (MCF7 [1]) [nM] | IC50 at 72 h [2] [nM] | log Ks (Calf thymus DNA [3]) | IC50 (Plasmodium falciparum [4]) [nM] | IC50 (Plasmodium falciparum [5]) [nM] | selectivity ratio [6] | Activity (Calf thymus DNA [7]) | Ratio IC50 (Plasmodium falciparum [8]) | Activity (RNA [9]) | Activity (dsDNA [10]) | Activity (RNA [11]) | Activity (Plasmodium berghei [13]) | Activity (Plasmodium berghei [14]) | Activity (Huh-7 [16]) | Activity (Huh-7 [17]) | Activity (dsDNA [19]) | Activity (RNA [20]) | also measured
COc1cc(NC(C)CCCn2cc(COc3ccc4[nH]c5c(C)nccc5c4c3)nn2)c2ncccc2c1-c1c(OC)cc(NC(C)CCCn2cc(COc3ccc4[nH]c5c(C)nccc5c4c3)nn2)c2ncccc12 (stereo not given) | > 50000 | > 50000 | > 50000 | > 100000 | > 50000 | 5.8 | 15.4 | 17.2 | > 3250 | inactive | 1.12 | inactive | inactive | inactive | Active | Active | inactive | inactive | Active | Active | Drug uptake [12]: Not Active; IC50 (Plasmodium berghei [15]): 36 nM; IC50 (Plasmodium falciparum [18]): 90.5 nM
COc1cc(NC(C)CCCNC(=O)NCc2nccc3c2[nH]c2ccccc23)c2ncccc2c1 (stereo not given) | 2480 | 690 | 940 | 1430 | 680 | 5.5 | 4700 | 6130 | 0.1 | inactive | 1.31 | inactive | inactive | inactive | Active | Active | Active | Active | Active | Active | selectivity ratio [21]: < 0.48; log Ks (RNA [22]): 4.2; Drug uptake [23]: Not Active; Activity (MCF7 [24]): Active; Activity (MCF7 [25]): Active; Activity (MCF7 [26]): Active; Activity (MCF7 [27]): inactive
